From patent US9657057B2, “Dipeptide and tripeptide epoxy ketone protease inhibitors” (Onyx Therapeutics, Inc., priority 2013, dated 2017)
In brackets after ≈: the same amount, converted by molar mass. Several values for one entry are separate records, joined by “and”; a condition that tells them apart may be missing. Equal entries are not always repeated.

Key:
Solubility pH 7 = assay type: physicochemical; conditions: pH 7, aqueous buffer
[1] = target: i20S (20S immunoproteasome) (Homo sapiens, UniProt P20618+P28062); experiment: 20S proteasome assay, chymotrypsin-like activity (LLVY), i20S; assay type: biochemical; conditions: LLVY i20S Hu 1 h CONT: IC50 (nM), succinyl-Leu-Leu-Val-Tyr-AMC
Description: (§1) Assay buffer consisted of TE buffer [20 mmol/L Tris (pH 8.0), 0.5 mmol/L EDTA] with (20S) or without (cell lysate) 0.03% SDS. Reactions were initiated by enzyme or lysate addition and monitored for AMC product formation at 27jC with a plate-based spectofluorometer (Tecan).

[2] = target: c20S (constitutive 20S proteasome) (Homo sapiens, UniProt P20618+P28074); experiment: 20S proteasome assay, chymotrypsin-like activity (LLVY), c20S; assay type: biochemical; conditions: LLVY c20S Hu 1 h CONT: IC50 (nM), succinyl-Leu-Leu-Val-Tyr-AMC
Description: as §1

LMP7 = target: T1, LMP7 (Homo sapiens, UniProt P20618+P28062); experiment: ProCISE proteasome subunit assay, LMP7; assay type: biochemical
T1 construct: endogenous in cells; host or cells: MOLT-4
Method: (§2) This assay was used to assess the inhibitory activity against each of LMP2, LMP7, MECL1, β1, β2, and β5. Briefly, test compounds were serially diluted in DMSO at 100× concentration, then diluted to 10× in aqueous hypotonic lysis buffer. Lysate from the human acute lymphoblastic leukemia cell line, MOLT-4, was treated for 1 hour at 25° C. with compound at a final 1× concentration. […] Following this, lysate was denatured in guanidine hydrochloride, and subunits bound to probe were isolated with streptavidin-conjugated sepharose beads. Individual subunits were probed with subunit-specific primary antibodies, followed by HRP-conjugated secondary antibodies. A chemiluminescent substrate was used to generate signal associated with HRP binding, which was detected on a plate reader. Luminescent signal was normalized to protein content, then, percent activity calculated relative to DMSO-treated controls to generate IC50 curves.

β5 = target: T2, β5 (Homo sapiens, UniProt P20618+P28074); experiment: ProCISE proteasome subunit assay, β5; assay type: biochemical
T2 construct: endogenous in cells; host or cells: MOLT-4
Method: as §2

Row | solubility (Solubility pH 7) [µg/mL] | IC50 [1] [nM] | IC50 [2] | IC50 (LMP7; MOLT4 lysate Hu 1 h) [nM] | IC50 (β5; MOLT4 lysate Hu 1 h) [nM] | IC50 (LMP7; ProCISE LMP7 MOLT4 lysate Hu 1 h CONT: IC50 (nM)) [nM] | IC50 (β5; ProCISE beta5 MOLT4 lysate Hu 1 h CONT: IC50 (nM)) [nM] | SMILES
1 | 59.1 (≈ 111 µM) | 560 | 797 nM |  |  |  |  | CCOCC(=O)N[C@@H](C)C(=O)N[C@@H](Cc1ccc(OC)cc1)C(=O)N[C@@H](CC1CCCC1)C(=O)[C@@]1(C)CO1 [Compound C-2020, (S)—N—((S)-3-cyclopentyl-1-((R)-2-methyloxiran-2-yl)-1-oxopropan-2-yl)-2-((S)-2-(2-ethoxyacetamido)propanamido)-3-(4-methoxyphenyl)propanamide]
2 | 2.1 (≈ 3.57 µM) |  | 5140 nM and 2710 nM | 130 | 4860 |  |  | COc1ccc(C[C@H](NC(=O)[C@@H](C)NC(=O)C2=Cc3ccccc3C2)C(=O)N[C@@H](CC2CCCC2)C(=O)[C@@]2(C)CO2)cc1 [Compound C-2036, N—((R)-1-(((S)-1-(((S)-3-cyclopentyl-1-((R)-2-methyloxiran-2-yl)-1-oxopropan-2-yl)amino)-3-(4-methoxyphenyl)-1-oxopropan-2-yl)amino)-1-oxopropan-2-yl)-1H-indene-2-carboxamide]
3 | 144 (≈ 253 µM) | 569 | 289 nM |  |  |  |  | COc1ccc(C[C@H](NC(=O)[C@H](C)NC(=O)c2cnc(C)s2)C(=O)N[C@@H](CC2CCCC2)C(=O)[C@@]2(C)CO2)cc1 [Compound C-2025, N—((S)-1-(((S)-1-(((S)-3-cyclopentyl-1-((R)-2-methyloxiran-2-yl)-1-oxopropan-2-yl)amino)-3-(4-methoxyphenyl)-1-oxopropan-2-yl)amino)-1-oxopropan-2-yl)-2-methylthiazole-5-carboxamide]
4 | 65.9 (≈ 122 µM) | 1400 | 9800 nM |  |  |  |  | COc1ccc(C[C@H](NC(=O)[C@@H](C)NC(=O)c2ccno2)C(=O)N[C@@H](CC2CCCC2)C(=O)[C@@]2(C)CO2)cc1 [Compound C-2041, N—((R)-1-(((S)-1-(((S)-3-cyclopentyl-1-((R)-2-methyloxiran-2-yl)-1-oxopropan-2-yl)amino)-3-(4-methoxyphenyl)-1-oxopropan-2-yl)amino)-1-oxopropan-2-yl)isoxazole-5-carboxamide]
5 | 316 (≈ 594 µM) | 332 | 579 nM |  |  |  |  | COCCC(=O)N[C@@H](C)C(=O)N[C@@H](Cc1ccc(OC)cc1)C(=O)N[C@@H](CC1CCCC1)C(=O)[C@@]1(C)CO1 [Compound C-2019, (S)—N—((S)-3-cyclopentyl-1-((R)-2-methyloxiran-2-yl)-1-oxopropan-2-yl)-3-(4-methoxyphenyl)-2-((S)-2-(3-methoxypropanamido)propanamido)propanamide]
6 | 44.1 (≈ 79.5 µM) | 2270 | 6030 nM |  |  |  |  | COc1ccc(C[C@H](NC(=O)[C@@H](C)NC(=O)c2oncc2C)C(=O)N[C@@H](CC2CCCC2)C(=O)[C@@]2(C)CO2)cc1 [Compound C-2024, N—((R)-1-(((S)-1-(((S)-3-cyclopentyl-1-((R)-2-methyloxiran-2-yl)-1-oxopropan-2-yl)amino)-3-(4-methoxyphenyl)-1-oxopropan-2-yl)amino)-1-oxopropan-2-yl)-4-methylisoxazole-5-carboxamide]
7 | 1.7 (≈ 2.88 µM) | 2580 | 3400 nM |  |  |  |  | COc1ccc(C[C@H](NC(=O)[C@@H](C)NC(=O)c2nc3ccccc3[nH]2)C(=O)N[C@@H](CC2CCCC2)C(=O)[C@@]2(C)CO2)cc1 [Compound C-2029, N—((R)-1-(((S)-1-(((S)-3-cyclopentyl-1-((R)-2-methyloxiran-2-yl)-1-oxopropan-2-yl)amino)-3-(4-methoxyphenyl)-1-oxopropan-2-yl)amino)-1-oxopropan-2-yl)-1H-benzo[d]imidazole-2-carboxamide]
8 | 121 (≈ 204 µM) |  |  | 157 | 6630 |  |  | COc1ccc(C[C@H](NC(=O)[C@@H](C)NC(=O)[C@H]2CCc3[nH]ncc3C2)C(=O)N[C@@H](CC2CCCC2)C(=O)[C@@]2(C)CO2)cc1 [Compound C-2065, (S)—N—((R)-1-(((S)-1-(((S)-3-cyclopentyl-1-((R)-2-methyloxiran-2-yl)-1-oxopropan-2-yl)amino)-3-(4-methoxyphenyl)-1-oxopropan-2-yl)amino)-1-oxopropan-2-yl)-4,5,6,7-tetrahydro-1H-indazole-5-carboxamide]

Further lines, the compound ahead of its results:

Row | SMILES | solubility (Solubility pH 7) [µg/mL] | IC50 [1] [nM] | IC50 [2] | IC50 (LMP7; MOLT4 lysate Hu 1 h) [nM] | IC50 (β5; MOLT4 lysate Hu 1 h) [nM] | IC50 (LMP7; ProCISE LMP7 MOLT4 lysate Hu 1 h CONT: IC50 (nM)) [nM] | IC50 (β5; ProCISE beta5 MOLT4 lysate Hu 1 h CONT: IC50 (nM)) [nM]
9 | COc1ccc(C[C@H](NC(=O)[C@@H](NC(=O)OCc2ccccc2)C2(O)CC2)C(=O)N[C@@H](Cc2ccccc2)C(=O)[C@@]2(C)CO2)cc1 [Compound C-2046, Benzyl ((S)-1-(1-hydroxycyclopropyl)-2-(((S)-3-(4-methoxyphenyl)-1-(((S)-1-((R)-2-methyloxiran-2-yl)-1-oxo-3-phenylpropan-2-yl)amino)-1-oxopropan-2-yl)amino)-2-oxoethyl)carbamate] | 10.7 (≈ 17 µM) | 5.2 | 7.9 nM |  |  |  | 
10 | COc1ccc(C[C@H](NC(=O)[C@H](C)NC(=O)CO)C(=O)N[C@@H](Cc2ccccc2)C(=O)[C@@]2(C)CO2)cc1 [Compound C-2008] | 2330 (≈ 4560 µM) | 558 | 1590 nM |  |  |  | 
11 | COc1ccc(C[C@H](NC(=O)[C@H](CN2CCOCC2)NC(=O)c2cc(C)no2)C(=O)N[C@@H](CC2CCCC2)C(=O)[C@@]2(C)CO2)cc1 [Compound C-2044, N—((S)-1-(((S)-1-(((S)-3-cyclopentyl-1-((R)-2-methyloxiran-2-yl)-1-oxopropan-2-yl)amino)-3-(4-methoxyphenyl)-1-oxopropan-2-yl)amino)-3-morpholino-1-oxopropan-2-yl)-3-methylisoxazole-5-carboxamide] | 130 (≈ 204 µM) | 1600 | 286 nM |  |  |  | 
12 | COc1ccc(C[C@H](NC(=O)[C@H](C)NC(=O)C2=C(C)c3ccccc3C2)C(=O)N[C@@H](Cc2ccccc2)C(=O)[C@@]2(C)CO2)cc1 [Compound C-2049, N—((S)-1-(((S)-3-(4-methoxyphenyl)-1-(((S)-1-((R)-2-methyloxiran-2-yl)-1-oxo-3-phenylpropan-2-yl)amino)-1-oxopropan-2-yl)amino)-1-oxopropan-2-yl)-3-methyl-1H-indene-2-carboxamide] | 0.8 (≈ 1.31 µM) |  |  |  |  | 45.8 | 57.6
13 | COc1ccc(C[C@H](NC(=O)[C@@H](C)NC(=O)CC(C)(C)O)C(=O)N[C@@H](Cc2ccc(C)cc2)C(=O)[C@H]2CO2)cc1 [Compound C-2053, 3-hydroxy-N—((R)-1-(((S)-3-(4-methoxyphenyl)-1-(((S)-1-((R)-oxiran-2-yl)-1-oxo-3-(p-tolyl)propan-2-yl)amino)-1-oxopropan-2-yl)amino)-1-oxopropan-2-yl)-3-methylbutanamide] | 1260 (≈ 2270 µM) |  |  | 1.82 | 5.27 |  | 
14 | COc1ccc(C[C@H](NC(=O)CNC(=O)C2=C(C)c3ccccc3C2)C(=O)N[C@@H](CC2CCCC2)C(=O)[C@@]2(C)CO2)cc1 [Compound C-2039, N-(2-(((S)-1-(((S)-3-cyclopentyl-1-((R)-2-methyloxiran-2-yl)-1-oxopropan-2-yl)amino)-3-(4-methoxyphenyl)-1-oxopropan-2-yl)amino)-2-oxoethyl)-3-methyl-1H-indene-2-carboxamide] | 1.7 (≈ 2.89 µM) | 2520 | 3950 nM |  |  |  | 
15 | COc1ccc(C[C@H](NC(=O)[C@@H](C)NC(=O)[C@@H]2CCc3[nH]ncc3C2)C(=O)N[C@@H](CC2CCCC2)C(=O)[C@@]2(C)CO2)cc1 [Compound C-2064, (R)—N—((R)-1-(((S)-1-(((S)-3-cyclopentyl-1-((R)-2-methyloxiran-2-yl)-1-oxopropan-2-yl)amino)-3-(4-methoxyphenyl)-1-oxopropan-2-yl)amino)-1-oxopropan-2-yl)-4,5,6,7-tetrahydro-1H-indazole-5-carboxamide] | 144 (≈ 242 µM) |  |  | 139 | 6110 |  | 
16 | COc1ccc(C[C@H](NC(=O)[C@@H](C)NC(=O)C2=CCCC2)C(=O)N[C@@H](Cc2ccccc2)C(=O)[C@@]2(C)CO2)cc1 [Compound C-2058, N—((R)-1-(((S)-3-(4-methoxyphenyl)-1-(((S)-1-((R)-2-methyloxiran-2-yl)-1-oxo-3-phenylpropan-2-yl)amino)-1-oxopropan-2-yl)amino)-1-oxopropan-2-yl)cyclopent-1-enecarboxamide] | 45.4 (≈ 82.9 µM) |  |  | 539 | 4290 |  | 
17 | C[C@@H](NC(=O)CC(C)(C)O)C(=O)N[C@@H](Cc1ccc(S(C)(=O)=O)cc1)C(=O)N[C@@H](CC1CCCC1)C(=O)[C@H]1CO1 [Compound C-2055, N—((R)-1-(((S)-1-(((S)-3-cyclopentyl-1-((R)-oxiran-2-yl)-1-oxopropan-2-yl)amino)-3-(4-(methylsulfonyl)phenyl)-1-oxopropan-2-yl)amino)-1-oxopropan-2-yl)-3-hydroxy-3-methylbutanamide] | 1970 (≈ 3400 µM) |  |  | 17.6 | 354 |  | 
